Patent publication US11479546B2, “Antimalarial hexahydropyrimidine analogues” (UCB Biopharma SRL, priority 2018, dated 2022)

Test system: Plasmodium falciparum 3D7
Test: P. falciparum 3D7 asexual blood stage assay, Assay Procedure Version 2 (SYBR green readout)
Assay type: cell-based
Details: Plasmodium falciparum, 3D7, Erythrocyte, 72 h, Version 2 of the assay procedure (asterisk *); 72 h incubation in infected erythrocytes; 50,000 nM to 15 nM
Method in brief: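 P. falciparum 3D7 in A+ erythrocytes (5% haematocrit, 0.5% parasitaemia) exposed 72 h at 37 °C (1% O2, 3% CO2) to 20-point 1.5-fold titrations, final 50,000–15 nM in 0.5% DMSO. SYBR green in lysis buffer overnight, fluorescence 485/528 nm; % inhibition vs mefloquine and DMSO controls, EC50 from biphasic two-site fit.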

| Compound | IC50 |
| --- | --- |
| CC(C)Oc1ccccc1Nc1cccc([C@]2(C)CC(=O)N(C3CCOCC3)C(=N)N2)c1Cl [Example 76, (6S)-6-[2-Chloro-3-(2-isopropoxyanilino)phenyl]-2-imino-6-methyl-3-(tetrahydro-pyran-4-yl)hexahydropyrimidin-4-one] | 757 nM |
| Cn1cc2c(Nc3cccc([C@]4(C)CC(=O)N(C5CCOCC5)C(=N)N4)c3Cl)cccc2n1 [Example 77, (6S)-6-{2-Chloro-3-[(2-methyl-indazol-4-yl)amino]phenyl}-2-imino-6-methyl-3-(tetrahydro-pyran-4-yl)hexahydropyrimidin-4-one] | 791 nM |
| Cn1cc2cc(Nc3cccc([C@]4(C)CC(=O)N(C5CCOCC5)C(=N)N4)c3Cl)ccc2n1 [Example 78, (6S)-6-{2-Chloro-3-[(2-methyl-indazol-5-yl)amino]phenyl}-2-imino-6-methyl-3-(tetrahydro-pyran-4-yl)hexahydropyrimidin-4-one] | 1420 nM |
| C[C@@]1(c2cccc(Nc3cccc(N4CCCC4=O)c3)c2Cl)CC(=O)N(C2CCOCC2)C(=N)N1 [Example 79, (6S)-6-{2-Chloro-3-[3-(2-oxo-pyrrolidin-1-yl)anilino]phenyl}-2-imino-6-methyl-3-(tetrahydro-pyran-4-yl)hexahydropyrimidin-4-one] | 401 nM |
| Cc1nnc(-c2ccc(Nc3cccc([C@]4(C)CC(=O)N(C5CCOCC5)C(=N)N4)c3Cl)cc2)o1 [Example 80, (6S)-6-{2-Chloro-3-[4-(5-methyl-1,3,4-oxadiazol-2-yl)-anilino]phenyl}-2-imino-6-methyl-3-(tetrahydropyran-4-yl)hexahydropyrimidin-4-one] | 652 nM |
| C[C@@]1(c2cccc(Nc3ccc(C(F)F)nc3)c2Cl)CC(=O)N(C2CCOCC2)C(=N)N1 [Example 81, (6S)-6-(2-Chloro-3-{[6-(difluoromethyl)pyridin-3-yl]-amino}phenyl)-2-imino-6-methyl-3-tetrahydropyran-4-yl-hexahydropyrimidin-4-one] | 425 nM |
| C[C@@]1(c2cccc(Nc3ccc(F)cc3C#N)c2Cl)CC(=O)N(C2CCOCC2)C(=N)N1 [Example 82, 2-{2-Chloro-3-[(4S)-2-imino-4-methyl-6-oxo-1-(tetrahydro-pyran-4-yl)hexahydropyrimidin-4-yl]anilino}-5-fluorobenzo-nitrile] | 137 nM |
| C[C@@]1(c2cccc(Nc3ccc(C(F)(F)F)cc3C#N)c2Cl)CC(=O)N(C2CCOCC2)C(=N)N1 [Example 83, 2-{2-Chloro-3-[(4S)-2-imino-4-methyl-6-oxo-1-(tetrahydro-pyran-4-yl)hexahydropyrimidin-4-yl]anilino}-5-(trifluoro-methyl)benzonitrile] | 357 nM |
| Cc1ccc(Nc2cccc([C@]3(C)CC(=O)N(C4CCOCC4)C(=N)N3)c2Cl)nn1 [Example 84, (6S)-6-{2-Chloro-3-[(6-methyl-pyridazin-3-yl)amino]phenyl}-2-imino-6-methyl-3-(tetrahydro-pyran-4-yl)hexahydropyrimidin-4-one] | 1540 nM |
| C[C@@]1(c2cccc(Nc3ccc4ncnn4c3)c2Cl)CC(=O)N(C2CCOCC2)C(=N)N1 [Example 85, (6S)-6-[2-Chloro-3-([1,2,4]-triazolo[1,5-a]pyridin-6-yl-amino)phenyl]-2-imino-6-methyl-3-(tetrahydropyran-4-yl)hexahydropyrimidin-4-one] | 1790 nM |
| CN1CCOc2cc(Nc3cccc([C@]4(C)CC(=O)N(C5CCOCC5)C(=N)N4)c3Cl)ccc21 [Example 86, (6S)-6-{2-Chloro-3-[(4-methyl-2,3-dihydro-1,4-benzoxazin-7-yl)amino]phenyl}-2-imino-6-methyl-3-(tetrahydropyran-4-yl)hexahydropyrimidin-4-one] | 658 nM |
| COc1cc(Nc2cccc([C@]3(C)CC(=O)N(C4CCOCC4)C(=N)N3)c2Cl)ccn1 [Example 87, (6S)-6-{2-Chloro-3-[(2-methoxypyridin-4-yl)amino]-phenyl}-2-imino-6-methyl-3-(tetrahydropyran-4-yl)-hexahydropyrimidin-4-one] | 666 nM |
| Cc1ccc(Nc2cccc([C@]3(C)CC(=O)N(C4CCOCC4)C(=N)N3)c2Cl)c(C#N)n1 [Example 88, 3-{2-Chloro-3-[(4S)-2-imino-4-methyl-6-oxo-1-(tetrahydro-pyran-4-yl)hexahydropyrimidin-4-yl]anilino}-6-methylpyridine-2-carbonitrile] | 532 nM |
| C[C@@]1(c2cccc(Nc3cnc4ccccc4c3C#N)c2Cl)CC(=O)N(C2CCOCC2)C(=N)N1 [Example 89, 3-{2-Chloro-3-[(4S)-2-imino-4-methyl-6-oxo-1-(tetrahydro-pyran-4-yl)hexahydropyrimidin-4-yl]anilino}quinoline-4-carbonitrile] | 232 nM |
| Cc1ncc(Nc2cccc([C@]3(C)CC(=O)N(C4CCOCC4)C(=N)N3)c2Cl)c2ccccc12 [Example 90, (6S)-6-{2-Chloro-3-[(1-methyl-isoquinolin-4-yl)amino]phenyl}-2-imino-6-methyl-3-(tetrahydro-pyran-4-yl)hexahydropyrimidin-4-one] | 3110 nM |
| C[C@@]1(c2cccc(Nc3ccn4nccc4c3)c2Cl)CC(=O)N(C2CCOCC2)C(=N)N1 [Example 91, (6S)-6-[2-Chloro-3-(pyrazolo-[1,5-a]pyridin-5-ylamino)-phenyl]-2-imino-6-methyl-3-(tetrahydropyran-4-yl)-hexahydropyrimidin-4-one] | 896 nM |
| C[C@@]1(c2cccc(Nc3ccc(F)cc3OC(F)F)c2Cl)CC(=O)N(C2CCOCC2)C(=N)N1 [Example 92, (6S)-6-{2-Chloro-3-[2-(difluoro-methoxy)-4-fluoro-anilino]-phenyl}-2-imino-6-methyl-3-(tetrahydropyran-4-yl)-hexahydropyrimidin-4-one] | 461 nM |
| Cc1ncc(Nc2cccc([C@]3(C)CC(=O)N(C4CCOCC4)C(=N)N3)c2Cl)cc1C(F)(F)F [Example 93, (6S)-6-(2-Chloro-3-{[6-methyl-5-(trifluoromethyl)pyridin-3-yl]-amino}phenyl)-2-imino-6-methyl-3-(tetrahydropyran-4-yl)hexahydropyrimidin-4-one] | 70 nM |
| Cc1ccc(Nc2cccc([C@]3(C)CC(=O)N(C4CCOCC4)C(=N)N3)c2Cl)c(OC(F)F)n1 [Example 94, (6S)-6-(2-Chloro-3-{[2-(difluoromethoxy)-6-methyl-pyridin-3-yl]amino}phenyl)-2-imino-6-methyl-3-(tetrahydro-pyran-4-yl)hexahydropyrimidin-4-one] | 34 nM |
| C[C@@]1(c2cccc(Nc3cnc(OC(F)F)c4ccccc34)c2Cl)CC(=O)N(C2CCOCC2)C(=N)N1 [Example 95, (6S)-6-(2-Chloro-3-{[1-(difluoromethoxy)isoquinolin-4-yl]amino}phenyl)-2-imino-6-methyl-3-(tetrahydropyran-4-yl)hexahydropyrimidin-4-one] | 456 nM |
| C[C@@]1(c2cccc(Nc3ccc(C#N)cc3OC(F)F)c2Cl)CC(=O)N(C2CCOCC2)C(=N)N1 [Example 96, 4-{2-Chloro-3-[(4S)-2-imino-4-methyl-6-oxo-1-(tetrahydro-pyran-4-yl)hexahydropyrimidin-4-yl]anilino}-3-(difluoro-methoxy)benzonitrile] | 195 nM |
| C[C@@]1(c2cccc(Nc3cccnc3OC(F)F)c2Cl)CC(=O)N(C2CCOCC2)C(=N)N1 [Example 97, (6S)-6-(2-Chloro-3-{[2-(difluoromethoxy)pyridin-3-yl]-amino}phenyl)-2-imino-6-methyl-3-(tetrahydropyran-4-yl)hexahydropyrimidin-4-one] | 216 nM |
| C[C@@]1(c2cccc(Nc3cc4ccccc4nc3OC(F)F)c2Cl)CC(=O)N(C2CCOCC2)C(=N)N1 [Example 98, (6S)-6-(2-Chloro-3-{[2-(difluoromethoxy)quinolin-3-yl]amino}phenyl)-2-imino-6-methyl-3-(tetrahydropyran-4-yl)hexahydropyrimidin-4-one] | 224 nM |
| C[C@@]1(c2cccc(Nc3ccc(C4CC4)nc3)c2Cl)CC(=O)N(C2CCOCC2)C(=N)N1 [Example 99, (6S)-6-{2-Chloro-3-[(6-cyclo-propylpyridin-3-yl)amino]-phenyl}-2-imino-6-methyl-3-(tetrahydropyran-4-yl)-hexahydropyrimidin-4-one] | 66 nM |
| C[C@@]1(c2cccc(Nc3ccc(C(F)F)nc3C#N)c2Cl)CC(=O)N(C2CCOCC2)C(=N)N1 [Example 100, 3-{2-Chloro-3-[(4S)-2-imino-4-methyl-6-oxo-1-(tetrahydro-pyran-4-yl)hexahydropyrimidin-4-yl]anilino}-6-(difluoro-methyl)pyridine-2-carbonitrile] | 347 nM |
| C[C@@]1(c2cccc(Nc3nccnc3OC(F)F)c2Cl)CC(=O)N(C2CCOCC2)C(=N)N1 [Example 101, (6S)-6-(2-Chloro-3-{[3-(difluoromethoxy)pyrazin-2-yl]-amino}phenyl)-2-imino-6-methyl-3-(tetrahydropyran-4-yl)hexahydropyrimidin-4-one] | 97 nM |
| C[C@@]1(c2cccc(Nc3ncccc3OC(F)F)c2Cl)CC(=O)N(C2CCOCC2)C(=N)N1 [Example 102, (6S)-6-(2-Chloro-3-{[3-(difluoromethoxy)pyridin-2-yl]-amino}phenyl)-2-imino-6-methyl-3-(tetrahydropyran-4-yl)hexahydropyrimidin-4-one] | 193 nM |
| C[C@@]1(c2cccc(Nc3ccc(C4(C#N)CCC4)nc3)c2Cl)CC(=O)N(C2CCOCC2)C(=N)N1 [Example 103, 1-(5-{2-Chloro-3-[(4S)-2-imino-4-methyl-6-oxo-1-(tetrahydro-pyran-4-yl)hexahydropyrimidin-4-yl]anilino}pyridin-2-yl)-cyclobutanecarbonitrile] | 551 nM |
| C[C@@]1(c2cccc(Nc3ccc(F)cc3S(C)(=O)=O)c2Cl)CC(=O)N(C2CCOCC2)C(=N)N1 [Example 104, (6S)-6-{2-Chloro-3-[4-fluoro-2-(methylsulfonyl)anilino]-phenyl}-2-imino-6-methyl-3-(tetrahydropyran-4-yl)-hexahydropyrimidin-4-one] | 131 nM |
